{"source": "patent US8992932B2", "about": "“Binder-drug conjugates (ADCs) and use thereof” (Seattle Genetics, Inc., priority 2011, dated 2015)", "key": {"tubulin": {"system": "tubulin", "experiment": "Fluorescence-based microtubule polymerisation assay (DAPI)", "format": "biochemical", "experimental": "Tubulin polymerization was investigated using the “Fluorescence-based Microtubule Polymerisation Assay Kit” from Cytoskeleton (Denver, Colo., USA; order number: BK011). With this assay, GTP is added to unpolymerized tubulin, allowing polymerization to take place spontaneously. The assay is based on the binding of the fluorophore 4′,6-diamidino-2-phenylindole (DAPI) to tubulin. Free and bound DAPI can be differentiated on the basis of different emission spectra.\n[…] In addition to the buffer control, paclitaxel, with a polymerization-increasing effect, and vinblastin, with a polymerization inhibiting effect, were run additionally as assay controls. Measurement was carried out using 96-well plates with a half base area. The kinetics of the tubulin polymerization were monitored in a Fluorimeter at 37° C. for 1 hour. The excitation wavelength was 355 nm, and emission was monitored at 460 nm. For the region of linear increase within the first 10 minutes, a calculation was made of the change in fluorescence per minute (AF/min), which represents the polymerization rate of the microtubuli. The potency of the test substances was quantified on the basis of their respective reduction of the polymerization rate."}, "Caco-2 cells": {"system": "Caco-2 cells", "experiment": "Cell permeability flux assay using Caco-2 cells", "format": "in vitro ADME", "conditions": "basal to apical, 2 hours", "experimental": "The cell permeability of a substance can be investigated by means of in vitro testing in a flux assay using Caco-2 cells [M. D. Troutman and D R Thakker, Pharm. Res. 20 (8), 1210-1224 (2003)]. For this purpose, the cells were cultured for 15-16 days on 24-well filter plates. For the determination of permeation, the respective working example was applied in a HEPES buffer to the cells either apically (A) or basally (B) and incubated for 2 hours. After 0 hours and after 2 hours, samples were taken from the cis and trans compartments. The samples were separated by HPLC (Agilent 1200, Boblingen, Germany) using reverse phase columns. The HPLC system was coupled via a Turbo Ion Spray Interface to a Triple Quadropol mass spectrometer API 4000 (Applied Biosystems Applera, Darmstadt, Germany). The permeability was evaluated on the basis of a Papp value, which was calculated using the formula published by Schwab et al. [D. Schwab et al., J. Med. Chem. 46, 1716-1725 (2003)]."}, "P-glycoprotein (P-gp)": {"biological_target": "T1, P-glycoprotein (P-gp) (Homo sapiens, UniProt P08183)", "T1 construct": "expressed in transfected cells; host or cells: LLC-PK1 (pig kidney) cells transfected with human MDR1 (L-MDR1 cells)", "T1 sequence (P08183 whole entry)": "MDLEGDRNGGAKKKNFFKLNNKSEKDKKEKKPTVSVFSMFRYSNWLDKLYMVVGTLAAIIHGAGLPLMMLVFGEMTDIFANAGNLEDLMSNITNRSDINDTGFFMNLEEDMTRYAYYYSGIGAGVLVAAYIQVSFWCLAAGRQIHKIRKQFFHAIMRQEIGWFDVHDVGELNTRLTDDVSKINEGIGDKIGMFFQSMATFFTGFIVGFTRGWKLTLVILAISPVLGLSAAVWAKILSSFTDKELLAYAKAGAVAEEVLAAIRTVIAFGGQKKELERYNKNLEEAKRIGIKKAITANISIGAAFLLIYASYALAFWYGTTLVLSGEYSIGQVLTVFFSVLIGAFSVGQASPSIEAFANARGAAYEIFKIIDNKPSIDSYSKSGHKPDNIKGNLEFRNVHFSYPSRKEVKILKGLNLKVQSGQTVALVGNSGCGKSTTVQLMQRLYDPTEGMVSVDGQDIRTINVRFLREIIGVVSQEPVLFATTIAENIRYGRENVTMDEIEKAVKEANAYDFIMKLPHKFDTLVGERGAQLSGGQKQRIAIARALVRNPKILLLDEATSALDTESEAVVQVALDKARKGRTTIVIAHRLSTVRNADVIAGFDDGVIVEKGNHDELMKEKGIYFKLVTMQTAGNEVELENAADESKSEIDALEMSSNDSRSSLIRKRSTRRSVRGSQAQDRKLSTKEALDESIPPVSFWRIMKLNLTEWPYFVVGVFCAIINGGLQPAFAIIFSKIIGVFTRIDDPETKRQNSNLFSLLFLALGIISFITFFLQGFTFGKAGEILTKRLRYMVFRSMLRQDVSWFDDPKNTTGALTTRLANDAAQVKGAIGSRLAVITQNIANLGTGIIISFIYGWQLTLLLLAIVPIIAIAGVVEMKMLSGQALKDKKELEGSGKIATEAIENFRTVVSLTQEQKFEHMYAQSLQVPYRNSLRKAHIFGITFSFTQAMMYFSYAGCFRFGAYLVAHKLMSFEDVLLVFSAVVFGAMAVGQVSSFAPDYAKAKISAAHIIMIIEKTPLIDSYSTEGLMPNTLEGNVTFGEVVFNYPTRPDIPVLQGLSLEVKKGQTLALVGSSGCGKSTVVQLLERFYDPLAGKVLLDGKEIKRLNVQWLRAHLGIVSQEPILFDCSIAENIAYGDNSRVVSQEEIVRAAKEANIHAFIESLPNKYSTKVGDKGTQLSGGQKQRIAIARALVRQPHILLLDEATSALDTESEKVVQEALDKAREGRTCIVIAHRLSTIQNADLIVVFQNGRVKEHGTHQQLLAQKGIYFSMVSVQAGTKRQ", "experiment": "P-gp substrate flux assay in L-MDR1 cells", "format": "in vitro ADME", "conditions": "L-MDR1 cells (P-gp overexpressing LLC-PK1); basal to apical; 2 hours", "experimental": "The substrate properties of a substance for P-gp (ABCB1) were determined by means of a flux assay using LLC-PK1 cells which overexpress P-gp (L-MDR1 cells) [A. H. Schinkel et al., J. Clin. Invest. 96, 1698-1705 (1995)]. For this purpose, the LLC-PK1 cells or L-MDR1 cells were cultured on 96-well filter plates for 3-4 days. For determination of the permeation, the respective test substance, alone or in the presence of an inhibitor (such as Ivermectin or Verapamil, for example), was applied in a HEPES buffer to the cells either apically (A) or basally (B) and incubated for 2 hours. After 0 hours and after 2 hours, samples were taken from the cis and trans compartments. The samples were separated by HPLC using reverse phase columns. The HPLC system was coupled via a Turbo Ion Spray Interface to a Triple Quadropol mass spectrometer API 3000 (Applied Biosystems Applera, Darmstadt, Germany). The permeability was evaluated on the basis of a Papp value which was calculated using the formula published by Schwab et al. [D. Schwab et al., J. Med. Chem. 46, 1716-1725 (2003)]."}}, "note": "“And” between values parts separate entries of the source, which are not always exact repeats. Equal values may be shown once. Where a name gives a salt, the structure may show the parent alone. Square brackets hold non-standard residues; d marks the D form. Peptide text beside a SMILES is read from it. * marks the point of attachment. X3 = CC(C)[C@@H](C(=O)*)N(C)CCOCCOCCOCCC(=O)NCCCC[C@H](N)C(=O)O; Dolaproine = CO[C@@H]([C@@H]1CCCN1)[C@@H](C)C(=O)O; Dil = CC[C@H](C)[C@H](NC)[C@@H](CC(=O)O)OC; Oxazinan2yl(1,2) = C1CCN(*)OC1; NMeV = CN[C@H](C(=O)O)C(C)C", "data": [{"compound": "CC[C@H](C)[C@@H]([C@@H](CC(=O)N1CCC[C@H]1[C@H](OC)[C@@H](C)C(=O)N[C@@H](Cc1c[nH]c2ccccc12)C(=O)N1CCCCO1)OC)N(C)C(=O)[C@@H](NC(=O)[C@H](C(C)C)N(C)CCOCCOCCOCCC(=O)NCCCC[C@H](N)C(=O)O)C(C)C", "note": "[Example 117, N-[(18S)-18-Amino-18-carboxy-12-oxo-3,6,9-trioxa-13-azaoctadec-1-yl]-N-methyl-L-valyl-N-[(3R,4S,5S)-1-{(2S)-2-[(1R,2R)-3-{[(2S)-3-(1H-indol-3-yl)-1-(1,2-oxazinan-2-yl)-1-oxopropan-2-yl]amino}-1-methoxy-2-methyl-3-oxopropyl]pyrrolidin-1-yl}-3-methoxy-5-methyl-1-oxoheptan-4-yl]-N-methyl-L-valinamide trifluoroacetate] (X3-V[Dil][Dolaproine]W-{Oxazinan2yl(1,2)})", "values": [{"measurement": "Tubulin polymerization in the presence of toxophore in [%]. Tubulin polymerization rate at 1 μM MMAF set at 100%", "setting": "tubulin; toxophore 1 μM, trifluoroacetate", "value": "60% and 78%"}]}, {"compound": "N-[6-(3-{[(2R)-2-Amino-2-carboxyethyl]sulphanyl}-2,5-dioxopyrrolidin-1-yl)hexyl]-N-methyl-L-valyl-N-[(3R,4S,5S)-1-{(2S)-2-[(1R,2R)-3-{R1S)-1-carboxy-2-(1H-indol-3-yl)ethyl]amino}-1-methoxy-2-methyl-3-oxopropyl]pyrrolidin-1-yl}-3-methoxy-5-methyl-1-oxoheptan-4-yl]-N-methyl-L-valinamide [Example 75]", "values": [{"measurement": "Papp (B-A)", "setting": "Caco-2 cells", "value": 0.1, "unit": "×10⁻⁶ cm/s"}, {"measurement": "Tubulin polymerization in the presence of toxophore in [%]. Tubulin polymerization rate at 1 μM MMAF set at 100%", "setting": "tubulin; toxophore 1 μM", "value": 107, "unit": "%"}, {"measurement": "Tubulin polymerization in the presence of toxophore in [%]. Tubulin polymerization rate at 1 μM MMAF set at 100%", "setting": "tubulin; toxophore 10 μM", "value": 25, "unit": "%"}, {"measurement": "Papp (B-A)", "setting": "P-glycoprotein (P-gp)", "value": 0.4, "unit": "×10⁻⁶ cm/s"}]}, {"compound": "CC[C@H](C)[C@@H]([C@@H](CC(=O)N1CCC[C@H]1[C@H](OC)[C@@H](C)C(=O)N[C@@H](Cc1ccccc1)C(=O)O)OC)N(C)C(=O)[C@@H](NC(=O)[C@@H](NC)C(C)C)C(C)C", "note": "[MMAF, monomethylauristatin F, reference compound] (H-[NMeV]V[Dil][Dolaproine]F-OH)", "values": [{"measurement": "Effect on tubulin polymerization (in words)", "setting": "tubulin", "value": "inhibit tubulin polymerization as a function of their concentration"}]}]}
